Our source for the inhibition values is EP0877022A1, “Synthesis of the sulfonylpyrimidine derivatives with anticancer activity” (Herbos d.d., priority 1997, dated 1998).

Structures are written as SMILES. Like-named read-outs stand apart in the source and are kept apart here.

Holding throughout (format): cell-based
Assay [1] has as its system human tumor pancreatic carcinoma (MiaPaCa 2). Put plainly: Growth inhibitory effects on MiaPaCa 2 cells (MTT staining). Conditions: MIA PaCa-2, concentration 10^-5 M, read-out: inhibition of cell growth. The method, then: (§1) Cell lines. Human tumor pancreatic carcinoma cells (MiaPaCa 2), laryngeal carcinoma (Hep 2), human cervical carcinoma (HeLa) and normal human fibroblasts (Hef 2) were grown as monolayers at 37 °C in a humidified atmosphere with 5% CO2 in DMEM supplemented with 10% fetal calf serum, 2 mM glutamine, 100 U/ml penicillin and […] streptomycin.
(§2) Cell Cytotoxicity. To the purpos of the experiments the cells ([…]; 2x10^4 cells/ml) were plated onto 96-microwell plates. After 24 hours, test compounds at different concentrations (10^-4-10^-8 M), were added to the cells. Three days later, cell viability was determined by […]. The control cells were grown under same conditions without addition of test compounds. […] This method depends on the conversion of a water-soluble tetrazolium salt (MTT) to a purple colored formazan precipitate. The reaction affected by dehydrogenase enzymes active only in living cells. Tests were carried out in 96-well microculture plates. 10^4 viable tumor cells per well at 4 h incubation time 20 µg MTT7100 µl total medium volume. Formazan crystals were dissolved in DMSO and the plates were immediately measured on a microculture plate reader at 540 nm.

Assay [2] concerns laryngeal carcinoma (Hep 2). The assay can be described thus: Growth inhibitory effects on Hep 2 cells (MTT staining). Particulars: Homo sapiens, concentration 10^-5 M, read-out: inhibition of cell growth. The method, then:
as §1, §2

The subject of assay [3] is human cervix carcinoma (HeLa). The assay can be described thus: Growth inhibitory effects on HeLa cells (MTT staining). Particulars: concentration 10^-5 M, read-out: inhibition of cell growth. The method, then:
as §1, §2

The subject of assay [4] is normal human fibroblasts (Hef 2). Put plainly: Growth inhibitory effects on normal Hef 2 fibroblasts (MTT staining). Particulars: Fibroblast, Hef 2 normal cells, concentration 10^-5 M, read-out: inhibition of cell growth. The method, then: as §1, §2

`Cc1ccc(S(=O)(=O)n2cc(Br)c(=O)[nH]c2=O)cc1` [compound 2]: the inhibition (usually how much of the control response was suppressed) at 10 µM in assay [1] came to 80%; in assay [2] (Hep 2) it was 20%; in assay [3], 85%.
For `Cc1ccc(S(=O)(=O)n2ccc(N)nc2=O)cc1` [compound 4], the inhibition at 10 µM was 20% in assay [4]; 65% in assay [1]; 20% in assay [2] (HEp-2, Hep 2); 85% in assay [3].
